Source: patent US4275076A, “Substituted naphthoic acids” (American Cyanamid Company, priority 1980, dated 1981)

How the values were obtained:
[1] = tested on: collagenase; settings: in words; cited from earlier work
[2] = target: T1, human skin fibroblast collagenase (Homo sapiens, UniProt P03956); assay: Collagenase Assay, Test Code 006 (degradation of 14C-labeled native collagen fibrils); format: biochemical; settings: 30 μg./ml., 37° C., 16 hours; based on the 0% value for the enzyme control
T1 construct: endogenous in cells; host or cells: human skin fibroblasts
T1 sequence (P03956 100-469): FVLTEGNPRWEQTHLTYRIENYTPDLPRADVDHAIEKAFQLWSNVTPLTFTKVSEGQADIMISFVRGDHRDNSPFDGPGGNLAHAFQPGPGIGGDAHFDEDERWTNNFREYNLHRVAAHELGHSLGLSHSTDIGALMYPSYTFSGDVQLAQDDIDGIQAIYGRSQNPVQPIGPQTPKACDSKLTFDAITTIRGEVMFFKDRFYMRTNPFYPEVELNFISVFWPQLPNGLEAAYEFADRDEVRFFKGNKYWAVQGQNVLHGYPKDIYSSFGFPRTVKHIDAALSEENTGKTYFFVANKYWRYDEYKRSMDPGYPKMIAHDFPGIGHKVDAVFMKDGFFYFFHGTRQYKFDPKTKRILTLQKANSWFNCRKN
Procedure: An active inhibitor would inhibit the degradation of the collagen fibril; (iii) Leukocyte Neutral Proteases Inhibitor Assay--This test measures the ability of neutral proteases derived from human leukocytes to degrade radiolabeled proteoglycans entrapped in polyacrylamide beads.
(i) Collagenase Assay--Test Code 006
Collagenase assays were performed by a modification of the method of Harper, et al., Biochem., 10, 3035 (1971). In a typical assay (total volume of 0.45 ml.), 100 μl. of the activated enzyme was added to the ^14 C-labeled collagen fibrils (250 μl.) followed by 100 μl. of 50 mM cacodylate, pH 7.4, containing 5 mM calcium chloride. After incubation at 37° C. for 16 hours, the tubes were centrifuged in a Beckman microfuge for five minutes at full speed. An aliquot (200 μl.) of the supernatant, representing collagenase digestion products of the fibril, was assayed for radioactivity. The effect of the test compound on collagen degradation by collagenase was examined as follows:
The test compound (in distilled water) was added at a test concentration of 30 μg./ml. to the assay tubes containing active collagenase (total volume 450 μl.) and after 16 hours the amount of radioactivity in the supernatant was determined. Appropriate blanks and trypsin controls were run in parallel.
The activities are expressed as % inhibition (lowering) of collagenase activity, i.e. based on the 0% value for the enzyme control.

[3] = tested on: corneal ulcerations; settings: directly applied to the eye, alkali burned rabbit; cited from earlier work
[4] = tested on: collagenase; settings: in words; collagenase or a proteinase contaminant in the collagenase preparation; cited from earlier work
[5] = compared with cysteine; cited from earlier work
[6] = tested on: corneal ulceration; settings: human; cited from earlier work

For `c1cnc2c(c1)ccc1cccnc12` [1,10-phenanthroline], which collagenase inhibition [1] is on record?
Its collagenase inhibition is “collagenase inhibitors”.

Which inhibition at 30 µg/mL [2] does the source give for `CCOC(=O)c1cc(O)c2cc(NC(=O)c3cccc(NC(=O)Nc4cccc(C(=O)Nc5ccc6cc(C(=O)OCC)cc(O)c6c5)c4)c3)ccc2c1` [6,6'-[Ureylenebis(m-phenylenecarbonylimino)]bis[4-hydroxy-2-naphthoic acid] diethyl ester] here?
Its inhibition at 30 µg/mL is 57%.

With `O=C(Nc1cccc(C(=O)Nc2ccc3cc(C(=O)O)cc(O)c3c2)c1)Nc1cccc(C(=O)Nc2ccc3cc(C(=O)O)cc(O)c3c2)c1` [6,6'-[Ureylenebis(m-phenylenecarbonylimino)]bis[4-hydroxy-2-naphthoic acid]] as the compound, how does the inhibition at 30 µg/mL [2] read?
The inhibition at 30 µg/mL was 92%.

For `CCOC(=O)c1cc(OC(C)=O)c2cc(NC(=O)c3cccc(NC(=O)Nc4cccc(C(=O)Nc5ccc6cc(C(=O)OCC)cc(OC(C)=O)c6c5)c4)c3)ccc2c1` [6,6'-[Ureylenebis(m-phenylenecarbonylimino)]bis[4-hydroxy-2-naphthoic acid]diethyl ester diacetate], which inhibition at 30 µg/mL [2] is on record?
Its inhibition at 30 µg/mL is 7%.

For `O=C([O-])CN(CCN(CC(=O)[O-])CC(=O)[O-])CC(=O)[O-].[Ca+2].[Ca+2]` [Calcium ethylenediaminetetraacetate], which frequency of ulceration [3] is on record?
Its frequency of ulceration is “reduce the frequency of ulceration”.

For `Cc1ccc(C(=O)Nc2ccc(S(=O)(=O)O)c3cc(S(=O)(=O)O)cc(S(=O)(=O)O)c23)cc1NC(=O)c1cccc(NC(=O)Nc2cccc(C(=O)Nc3cc(C(=O)Nc4ccc(S(=O)(=O)O)c5cc(S(=O)(=O)O)cc(S(=O)(=O)O)c45)ccc3C)c2)c1` [Suramin], which “inhibiting the activity of collagenase” value [4] is on record?
Its value is “not inhibiting the action of collagenase”.

Which stability [5] does the source give for `CC(=O)N[C@@H](CS)C(=O)O` [acetylcysteine] here?
The stability was “greater stability”.

What about the “treatment of acute and chronic corneal ulceration” value [6] of the same compound?
The value was “effective”.

And the frequency of ulceration [3]?
The frequency of ulceration was “reduce the frequency of ulceration”.

Which results are given for `N[C@@H](CS)C(=O)O` [cysteine]?
treatment of acute and chronic corneal ulceration [6]: effective; collagenase inhibition [1]: collagenase inhibitors

With `O[C@@H](CS)[C@@H](O)CS` [dithiothretol] as the compound, how does the collagenase inhibition [1] read?
Its collagenase inhibition is “collagenase inhibitors”.

For `Cc1cc(-c2ccc(/N=N/c3c(S(=O)(=O)O)cc4cc(S(=O)(=O)O)cc(N)c4c3O)c(C)c2)ccc1/N=N/c1c(S(=O)(=O)O)cc2cc(S(=O)(=O)O)cc(N)c2c1O` [trypan blue], which “inhibiting the activity of collagenase” value [4] is on record?
The value was “inhibiting the activity of collagenase”.

For sodium auriothiomalate, which collagenase inhibition [1] is on record?
The collagenase inhibition was “collagenase inhibitors”.

Which collagenase inhibition [1] does the source give for “α2 -macroglobulin: Naturally occurring collagenase inhibitors include the serum components α2 -macroglobulin and β1-anticollagenase” here?
The collagenase inhibition was “collagenase inhibitors”.
